Laboratory results as given in patent US5972963A, “3-aryl-2-(1-substituted 4-piperidinyl)-1,1-dioxo-3H-benzo[D]isothiazoles and related compounds” (Hoechst Marion Roussel, Inc., priority 1997, dated 1999).
Counter-ions that a name gives are not always drawn. Like-named read-outs stand apart in the source and are kept apart here.

How the values were obtained:
[1] = tested on: dopamine (DA) uptake; conditions: cited from earlier work
[2] = tested on: norepinephrine (NE) uptake, rat whole brain synaptosomes; assay: Inhibition of [^3 H]-Norepinephrine Uptake in Rat Whole Brain or Hypothalamic Synaptosomes; assay type: biochemical; conditions: at 3.16 μmn
Description: Inhibition of [^3 H]-Norepinephrine Uptake in Rat Whole Brain or Hypothalamic Synaptosomes
This assay is used as a biochemical screen for potential antidepressants which block norepinephrine uptake.
(§1) A. Animals: Male CR Wistar rats (100-125 g).
3. L(-)-Norepinephrine bitartrate is obtained from Sigma Chemical Co. A 0.1 mM stock solution is made up in 0.01 N HCl. This is used to dilute the specific activity of theradiolabeled NE.
4. Levo-[Ring-2,5,6-^3 H]-Norepinephrine (40-50 Ci/mmol) is obtained from New England Nuclear.
The final desired concentration of [^3 H]-NE in the assay is 50 nM. The dilution factor is 0.8. Therefore, the KHBB is made up to contain 62.5 nM [^3 H]-NE.
(§2) 5. For most assays, a 1 mM stock solution of the test compound is made up in a suitable solvent and serially diluted such that the final concentration in the assay ranges from 2×10^-8 to 2×10^-5 M. Seven concentrations are used for each assay. Higher or lower concentrations may be used depending on the potency of the compound.
(§3) Male Wistar rats are decapitated and the brain rapidly removed. Either whole brain minus cerebella or hypothalamus is weighed and homogenized in 9 volumes of ice-cold 0.32 M sucrose using a Potter-Elvejhem homogenizer. Homogenization should be done with 4-5 up and down strokes at medium speeds to minimize synaptosome lysis. TH homogenate is centrifuged at 1000 g for 10 minutes at 0°-4° C. The supernatant (S1) is decanted and is used for uptake experiments.
(§4) 20 μl Vehicle or appropriate drug concentration
Tubes are incubated at 37° C., under a 95% O2 /5% CO2 atmosphere for 5 minutes. For each assay, 3 tubes are incubated with 20 μl of vehicle at 0° C. in a ice bath. After incubation all tubes are immediately centrifuged at 4000 g for 10 minutes. The supernatant fluid is aspirated and the pellets dissolved by adding 1 ml of solubilizaer (Triton X-100+50% EtOH, 1:4 v/v). The tubes are vigorously vortexed, decanted into scientillation vials, and counted in 10 ml of Liquiscint scintillation countering cocktail. Active uptake is the difference between cpm at 37° C. and 0C. The percent inhibition at each drug concentration is the mean of three determinations IC50 values are derived from log-probit analysis.

[3] = tested on: serotonin (5HT) uptake, rat whole brain synaptosomes; assay: Inhibition of [^3 H]-Serotonin Uptake in Rat Whole Brain Synaptosomes; assay type: biochemical; conditions: at 3.16 μmn
Description: Inhibition of [^3 H]-Serotonin Uptake in Rat Whole Brain Synaptosomes
This assay is used a biochemical screen for compounds which block serotonin (5 HT) uptake, which may be useful as antidepressants and for the treatment of personality disorders such as obsessive compulsive disorder.
as §1
3. Serotonin creatinine SO4 is obtained from Sigma Chemical Co. A 0.1 mM stock solution is made up in 0.01 N HCl. This is used to dilute the specific activity of radiolabeled 5 HT.
4. 5-[1,2-^3 H(N)]-Hydroxytryptamine creatinine sulfate (Serotonin), specific activity 20-30 Ci/mmol is obtained from New England Nuclear.
The final desired concentration of ^3 H-5 HT in the assay is 50 nM. The dilution factor is 0.8. Therefore, the KHBB is made up to contain 62.5 nM [^3 H]-5 HT.
as §2, with “mM” for “mM stock”, “in” for “in a”
as §3, with “Whole” for “Either whole”, “cerebella” for “cerebella or hypothalamus”, “The” for “TH”
800 μl KHBB +[^3 H]-5 HT.
as §4
(§5) Tubes are incubated at 37° C. under a 95% O2 /5% CO2 atmosphere for 5 minutes. For each assay, 3 tubes are incubated with 20 μl of vehicle at 0° C. in an ice bath. After incubation all tubes are immediately centrifuged at 4000 g for 10 minutes. The supernatant fluid is aspirated and the pellets dissolved by adding 1 ml of solubilizer (Triton X-100+50% EtOH, 1:4 v/v). The tubes are vigorously vortexed, decanted into scintillation vials, and counted in 10 ml of Liquiscint scintillation counting cocktail. Active uptake is the difference between cpm at 37° C. and 0° C. The percent inhibition at each drug concentration is the mean of three determinations. IC50 values are derived from log-probit analysis.

[4] = tested on: dopamine (DA) uptake, rat striatal synaptosomes; assay: Inhibition of ^3 H-Dopamine Uptake in Rat Striatal Synaptosomes; assay type: biochemical; conditions: at 3.16 μmn; head: whole brain synaptosomes, protocol: striatal synaptosomes
Description: Inhibition of ^3 H-Dopamine Uptake in Rat Striatal Synaptosomes
this assay is used to show differential drug effects on dopamine uptake versus nerepppinephrine uptake and to identify therapeutic agents for diseases where the potentiation of dopaminergic activity may be helpful (e.g. Parkinson's Disease).
as §1
3. Dopamine HCl is obtained from Sigma Chemical Co. A 0.1 mM stock solution is made up in 0.01 N HCl. This is used to dilute the specific activity of radiolabeled 5 HT.
4. 3,4-[8-^3 H(N)]-Dihydroxyphenylethylamine (Dopamine), specific activity 4-34 Ci/mmol is obtained from New England Nuclear.
The final desired concentration of ^3 H-DA in the assay is 50 nM. The dilution factor is 0.9. Therefore, the KHBB is made up to contain 55.5 nM [^3 H]-5 DA.
as §2
as §3, with “Corpora striata are rapidly removed,” for “Either whole brain minus cerebella or hypothalamus is”, “The” for “TH”, “(S)” for “(S1)”
as §4, §5

[5] = tested on: serotonin (5 HT) uptake; conditions: literature; cited from earlier work
[6] = tested on: norepinephrine (NE) uptake; conditions: literature; cited from earlier work
[7] = tested on: 5 HT uptakes sites; conditions: in vitro receptor binding, literature; cited from earlier work

Structure (SMILES)	DA uptake inhibition ([1]; literature)	% inhibition NE [2]	% inhibition 5HT [3]	% inhibition DA [4]	NE uptake inhibition [6]	also measured
C[C@@H](N)Cc1ccccc1 [1-amphetamine]	no stereo selectivity for the inhibition of DA uptake	–	–	–	–	–
COc1cc(C(C)=O)ccc1OCCCN1CCC(N2C(c3ccc(Cl)cc3)c3ccccc3S2(=O)=O)CC1 (centres unmarked) [1-[4-(3-{4-[3-(4-Chlorophenyl)-1,1-dioxo-3H-benzo[d]isothiazol-2-yl]-1-piperidin-1-yl}-propoxy)-3-methoxyphenyl]-ethanone maleate]	–	55.23%	48.78%	67.94%	–	–
O=C(O)/C=C\C(=O)O.O=C1c2ccccc2C(=O)N1CCCN1CCC(N2C(c3ccc(Cl)cc3)c3ccccc3S2(=O)=O)CC1 (centres unmarked) [2-(3-{4-[3-(4-Chlorophenyl)-1,1-dioxo-3H-benzo[d]isothiazol-2-yl]piperidin-1-yl}propyl)-isoindol-1,3-dione maleate]	–	28.37%	29.02%	57.36%	–	–
C[C@H](N)Cc1ccccc1 [d-amphetamine]	no stereo selectivity for the inhibition of DA uptake	–	–	–	–	–
CN(C)C/C=C(/c1ccc(Br)cc1)c1cccnc1 [zimelidine]	–	–	–	–	–	5 HT uptake inhibition [5]: fairly selective effects on 5 HT uptakes
CC(NC(C)(C)C)C(=O)c1cccc(Cl)c1 (centres unmarked) [bupropion]	inhibit DA uptake	–	–	–	–	–
C[C@@H]1O[C@@H](O[C@H]2C[C@@H](O)[C@]3(CO)[C@H]4[C@H](O)C[C@]5(C)[C@@H](C6=CC(=O)OC6)CC[C@]5(O)[C@@H]4CC[C@]3(O)C2)[C@H](O)[C@H](O)[C@H]1O [ouabain]	–	–	–	–	also inhibited	DA uptake inhibition [1]: potently inhibited
CN(C)CCCN1c2ccccc2CCc2ccccc21 [[^3 H]-imipramine]	–	–	–	–	–	labelling of 5 HT uptake sites [7]: labels 5 HT uptakes sites
COC(=O)[C@H]1[C@@H](OC(=O)c2ccccc2)C[C@@H]2CC[C@H]1N2C [cocaine]	potently inhibited	–	–	–	potently inhibited	–
CC(COc1ccccc1)N(CCCl)Cc1ccccc1 (centres unmarked) [phenoxybenzarrine]	–	–	–	–	also inhibited	–
O=C(O)/C=C\C(=O)O.O=S1(=O)c2ccccc2C(c2ccc(Cl)cc2)N1C1CCN(CCO)CC1 (centres unmarked) [2-{4-[3(4-Chlorophenyl)-1,1-dioxo-3H-benzo[d]isothiazol-2-yl]-piperidin-1-yl}-ethanol maleate]	–	8.71%	3.68%	18.71%	–	–
CNCCCN1c2ccccc2CCc2ccccc21 [desipramine]	–	–	–	–	more active than the tertiary amines (e.g. imipramine)	–
Cl.O=S1(=O)c2ccccc2C(c2ccc(F)cc2)N1C1CCNCC1 (centres unmarked) [3-(4-Fluorophenyl)-2-(4-piperidinyl)-2,3-dihydrobenzo[d]isothiazole-1,1-dioxide hydrochloride]	–	25.02%	37.92%	30.34%	–	–
